pEC50: −log10 of the molar value.
Tests used:
[1] = system: Leigh syndrome patient cells (KCMC10); assay: Test III: suppression of BSO-induced ferroptosis, Leigh syndrome patient cells; type: cell-based, human; conditions: for cell death ascribable to ferroptosis induced by BSO: 100 μM BSO coadded with test compound, FIG. 32; for pEC50: Homo sapiens, read-out: EC50 (50% effective concentration of the suppressive effect on cell death ascribable to ferroptosis induced by BSO); for pEC50 / ferroptosis inhibitory effect (judged from EC50 value): Leigh syndrome patient cells (KCMC10), BSO; for ferroptosis inhibitory effect (judged from EC50 value): Table 3
Description: (§1) Apomorphine and idebenone approved as a therapeutic drug for Leber's hereditary optic neuropathy in the Europe were used as control drugs.
(§2) In the drawing, A depicts the results obtained using compounds D8, D9, D10, D18, D20, D26, and D36, and B depicts the results obtained using compounds D37, D38, D39, D40, D41, D42, and D43. In the drawing, the abscissa depicts test compounds, and the ordinate depicts the cell viability (%) of each treated plot when the number of live cells in a control non-supplemented with BSO is defined as 100%.

[2] = system: MELAS patient cells (ME169); assay: Test III: suppression of BSO-induced ferroptosis, MELAS patient cells; type: cell-based, human; conditions: 80 μM BSO coadded with test compound; FIG. 33
Description: as §1, §2

[3] = system: Leigh syndrome patient cells (KCMC10); assay: Test III: suppression of RSL-3-induced ferroptosis, Leigh syndrome patient cells; type: cell-based, human; conditions: 100 nM RSL-3 coadded with test compound; FIG. 34
Description: as §1
as §2, with “RSL-3” for “BSO”

[4] = system: MELAS patient cells (ME169); assay: Test III: suppression of RSL-3-induced ferroptosis, MELAS patient cells; type: cell-based, human; conditions: 100 nM RSL-3 coadded with test compound; FIG. 35
Description: as §1
as §2, with “RSL-3” for “BSO”

dopamine D2 receptor = dopamine D2 receptor (Homo sapiens (Human), UniProt P14416); assay: Test IV: dopamine D2 receptor binding activity (GeneBLAzer D2-Gqo5-NEAT-bla CHO-K1 Cell-based Assay); conditions: for Dopamine D2 receptor binding activity, Activity intensity: CHO-K1 reporter cells, 5 hours
dopamine D2 receptor, sequence (P14416 whole entry): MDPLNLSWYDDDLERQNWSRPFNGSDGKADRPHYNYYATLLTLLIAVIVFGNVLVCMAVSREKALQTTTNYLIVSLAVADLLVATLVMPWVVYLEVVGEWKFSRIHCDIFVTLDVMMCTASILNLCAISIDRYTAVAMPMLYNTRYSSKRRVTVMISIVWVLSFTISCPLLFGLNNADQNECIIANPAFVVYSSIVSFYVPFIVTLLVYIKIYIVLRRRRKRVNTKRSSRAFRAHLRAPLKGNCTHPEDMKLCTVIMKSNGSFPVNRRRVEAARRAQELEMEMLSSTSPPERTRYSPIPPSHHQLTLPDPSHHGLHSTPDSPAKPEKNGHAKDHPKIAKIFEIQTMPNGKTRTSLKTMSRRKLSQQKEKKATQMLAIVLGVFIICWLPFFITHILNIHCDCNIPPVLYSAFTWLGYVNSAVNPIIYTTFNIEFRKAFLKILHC
Protocol: In this test, the dopamine D2 receptor binding activity of each test compound was measured using GeneBLAzer D2-Gqo5-NEAT-bla CHO-K1 Cell-based Assay (Thermo Fisher Scientific, Inc.). The CHO cells are designed such that a signal transduction pathway is activated by addition of a drug to express a reporter gene (P lactamase). […] Therefore, the binding activity of the test compound can be measured by measuring a blue fluorescence/green fluorescence ratio. The CHO cells were inoculated at 10,000 cells/well to a 384-well plate and cultured for 16 to 20 hours in a CO2 incubator. […] A substrate mix was added to the cells and incubated at room temperature for 2 hours. […] The respective EC50 values of the test compounds were determined from the measured fluorescence ratios using GraphPad Prism 8.

[5] = system: human liver cancer cell line (Huh7); assay: Test V: suppression of RSL-3-induced cell death in liver cancer cell system (LDH, MTT); type: cell-based; set-up: key to LDH (LDH activity, cell death): relative to control without RSL-3 (= 1); conditions: Huh7, test compound 1 μM (GSK872 5 μM) 1 hour, then RSL-3 0.5 μM 24 hours, relative value, control non-supplemented with RSL-3 = 1; for viability at 1 µM: Homo sapiens, Huh-7, read-out: MTT (cell proliferation and cell viability)
Protocol: The ferroptosis inducer used was RSL-3.
At the stage where 70% confluency was attained, the medium was replaced with the medium for the test, and DMSO or each test compound (final concentration of GSK872: 5 μM, and final concentration of the other compounds: 1 μM) was added to the cells in each well, which were then cultured for 1 hour. Then, the ferroptosis inducer (final concentration: 0.5 μM) was added to the cells in each well, which were then cultured for 24 hours. After the completion of culture, cell death suppressive activity was measured with lactate dehydrogenase (LDH) activity as an index while cell proliferation and cell viability were measured with activity of reducing yellow tetrazolium salt (MTT) into formazan as an index.
The values in the table are relative values when the LDH activity and MTT value of a control non-supplemented with RSL-3 are each defined as 1.

SH-SY5Y cells = assay: Test VI: inhibition of rotenone-induced neuronal death (LDH assay); type: cell-based, human; set-up: key: ++: the case where a concentration-dependent inhibitory effect on rotenone-induced cell death was able to be confirmed twice; +: In the third test, the case where the concentration-dependent inhibitory effect was able to be confirmed; ±: the case where no concentration-dependent inhibitory effect was able to be confirmed; −: The case where any inhibitory effect on rotenone-induced cell death was able to be confirmed in none of the two tests; conditions: rotenone 1 μM, compound 10 nM-10 μM (Apo 0.1 nM-10 μM), 48 hours
Protocol: After the completion of culture, rotenone-induced cell death was measured using Cytotoxicity LDH Assay Kit-WST (Dojindo Laboratories). […] The test was conducted twice, and the case where a concentration-dependent inhibitory effect on rotenone-induced cell death was able to be confirmed twice was rated as (++). If the inhibitory effect was confirmed in one of the two tests and no inhibitory effect was confirmed in the other test, the third test was conducted. In the third test, the case where the concentration-dependent inhibitory effect was able to be confirmed was rated as (+), and the case where no concentration-dependent inhibitory effect was able to be confirmed was rated as (±). The case where any inhibitory effect on rotenone-induced cell death was able to be confirmed in none of the two tests was rated as (−).

COc1cccc2c1C[C@@H]1c3c(cc4c(c3-2)OCO4)CCN1C [D9]
cell death ascribable to ferroptosis induced by BSO [1]: markedly suppressed | pEC50 [1]: 6.41 | cell death ascribable to ferroptosis induced by BSO [2]: markedly suppressed | cell death ascribable to ferroptosis induced by RSL-3 [3]: suppressed | cell death ascribable to ferroptosis induced by RSL-3 [4]: suppressed | dopamine D2 receptor binding activity (in words) (dopamine D2 receptor): no or little | Dopamine D2 receptor binding activity, Activity intensity (dopamine D2 receptor): −

COc1cc(O)c2c(c1)C[C@@H]1c3c(cc4c(c3-2)OCO4)CCN1C [D10]
cell death ascribable to ferroptosis induced by BSO [1]: markedly suppressed | pEC50 [1]: 6.12 | cell death ascribable to ferroptosis induced by BSO [2]: markedly suppressed | cell death ascribable to ferroptosis induced by RSL-3 [3]: suppressed | cell death ascribable to ferroptosis induced by RSL-3 [4]: suppressed | dopamine D2 receptor binding activity (in words) (dopamine D2 receptor): no or little | Dopamine D2 receptor binding activity, Activity intensity (dopamine D2 receptor): −

CN1CCc2cc3c(c4c2[C@H]1Cc1ccccc1-4)OCO3 [D18]
cell death ascribable to ferroptosis induced by BSO [1]: markedly suppressed | pEC50 [1]: 6.31 | cell death ascribable to ferroptosis induced by BSO [2]: markedly suppressed | cell death ascribable to ferroptosis induced by RSL-3 [3]: suppressed | cell death ascribable to ferroptosis induced by RSL-3 [4]: suppressed | dopamine D2 receptor binding activity (in words) (dopamine D2 receptor): no or little | Dopamine D2 receptor binding activity, Activity intensity (dopamine D2 receptor): −

COc1cc2c(cc1OC)-c1c3c(c(OC)c4c1C(C2)N(C)CC4)OCO3 (stereo not shown) [D20]
cell death ascribable to ferroptosis induced by BSO [1]: markedly suppressed | pEC50 [1]: 6.10 | cell death ascribable to ferroptosis induced by BSO [2]: markedly suppressed | cell death ascribable to ferroptosis induced by RSL-3 [3]: suppressed | cell death ascribable to ferroptosis induced by RSL-3 [4]: suppressed | dopamine D2 receptor binding activity (in words) (dopamine D2 receptor): no or little | Dopamine D2 receptor binding activity, Activity intensity (dopamine D2 receptor): −

CN1CCc2cccc3c2[C@H]1Cc1ccc(OCCCc2ccccc2)c(O)c1-3.Cl [D37]
pEC50 [1]: 6.73 | ferroptosis inhibitory effect (judged from EC50 value) [1]: particularly high | dopamine D2 receptor binding activity (in words) (dopamine D2 receptor): no or little | Dopamine D2 receptor binding activity, Activity intensity (dopamine D2 receptor): − | viability at 1 µM [5]: 80% | LDH (LDH activity, cell death) [5]: 0.85 | Inhibitory effect on rotenone-induced cell death (SH-SY5Y cells): ++

CN1CCc2cccc3c2[C@H]1Cc1ccc(OCCCO)c(O)c1-3.Cl [D38]
ferroptosis inhibitory effect (judged from EC50 value) [1]: particularly high | dopamine D2 receptor binding activity (in words) (dopamine D2 receptor): no or little | Dopamine D2 receptor binding activity, Activity intensity (dopamine D2 receptor): ± | viability at 1 µM [5]: 81% | LDH (LDH activity, cell death) [5]: 1.66 | Inhibitory effect on rotenone-induced cell death (SH-SY5Y cells): ++

CN1CCc2cccc3c2[C@H]1Cc1ccc(OCCCCl)c(O)c1-3.Cl [D39]
pEC50 [1]: 6.59 | dopamine D2 receptor binding activity (in words) (dopamine D2 receptor): no or little | Dopamine D2 receptor binding activity, Activity intensity (dopamine D2 receptor): − | viability at 1 µM [5]: 80% | LDH (LDH activity, cell death) [5]: 1.15 | Inhibitory effect on rotenone-induced cell death (SH-SY5Y cells): +

CCCOc1ccc2c(c1O)-c1cccc3c1[C@@H](C2)N(C)CC3.Cl [D40]
pEC50 [1]: 7.26 | ferroptosis inhibitory effect (judged from EC50 value) [1]: particularly high | dopamine D2 receptor binding activity (in words) (dopamine D2 receptor): no or little | Dopamine D2 receptor binding activity, Activity intensity (dopamine D2 receptor): − | viability at 1 µM [5]: 84% | LDH (LDH activity, cell death) [5]: 1.15 | Inhibitory effect on rotenone-induced cell death (SH-SY5Y cells): +

CCCCCCCCCOc1ccc2c(c1O)-c1cccc3c1[C@@H](C2)N(C)CC3.Cl [D41]
pEC50 [1]: 6.19 | dopamine D2 receptor binding activity (in words) (dopamine D2 receptor): no or little | Dopamine D2 receptor binding activity, Activity intensity (dopamine D2 receptor): −

CN1CCc2cccc3c2[C@H]1Cc1ccc(OCCCC(F)(F)F)c(O)c1-3.Cl [D42]
pEC50 [1]: 6.78 | ferroptosis inhibitory effect (judged from EC50 value) [1]: particularly high | dopamine D2 receptor binding activity (in words) (dopamine D2 receptor): no or little | Dopamine D2 receptor binding activity, Activity intensity (dopamine D2 receptor): − | viability at 1 µM [5]: 82% | LDH (LDH activity, cell death) [5]: 1.55 | Inhibitory effect on rotenone-induced cell death (SH-SY5Y cells): +

COc1ccc2c(c1O)-c1c(OC)c(OC)cc3c1[C@@H](C2)N(C)CC3 [D43]
pEC50 [1]: 6.65 | dopamine D2 receptor binding activity (in words) (dopamine D2 receptor): no or little | Dopamine D2 receptor binding activity, Activity intensity (dopamine D2 receptor): − | viability at 1 µM [5]: 49% | LDH (LDH activity, cell death) [5]: 6.52 | Inhibitory effect on rotenone-induced cell death (SH-SY5Y cells): −

CN1CCc2cccc3c2[C@H]1Cc1ccc(-c2ccccc2)c(O)c1-3 [D45]
pEC50 [1]: 7.02 | ferroptosis inhibitory effect (judged from EC50 value) [1]: particularly high | dopamine D2 receptor binding activity (in words) (dopamine D2 receptor): no or little | Dopamine D2 receptor binding activity, Activity intensity (dopamine D2 receptor): ± | viability at 1 µM [5]: 77% | LDH (LDH activity, cell death) [5]: 0.43 | Inhibitory effect on rotenone-induced cell death (SH-SY5Y cells): ++

CN1CCc2cccc3c2[C@H]1Cc1ccc(OCc2ccccc2)c(O)c1-3 [D47]
pEC50 [1]: 6.91 | ferroptosis inhibitory effect (judged from EC50 value) [1]: particularly high | dopamine D2 receptor binding activity (in words) (dopamine D2 receptor): no or little | Dopamine D2 receptor binding activity, Activity intensity (dopamine D2 receptor): − | viability at 1 µM [5]: 71% | LDH (LDH activity, cell death) [5]: 0.39 | Inhibitory effect on rotenone-induced cell death (SH-SY5Y cells): ++

CN1CCc2cccc3c2[C@H]1Cc1ccc(OCCc2ccccc2)c(O)c1-3 [D48]
pEC50 [1]: 6.89 | ferroptosis inhibitory effect (judged from EC50 value) [1]: particularly high | dopamine D2 receptor binding activity (in words) (dopamine D2 receptor): no or little | Dopamine D2 receptor binding activity, Activity intensity (dopamine D2 receptor): − | viability at 1 µM [5]: 78% | LDH (LDH activity, cell death) [5]: 0.44 | Inhibitory effect on rotenone-induced cell death (SH-SY5Y cells): ++

CN1CCc2cccc3c2[C@H]1Cc1ccc(OCCCCc2ccccc2)c(O)c1-3 [D50]
pEC50 [1]: 6.68 | dopamine D2 receptor binding activity (in words) (dopamine D2 receptor): no or little | Dopamine D2 receptor binding activity, Activity intensity (dopamine D2 receptor): − | viability at 1 µM [5]: 60% | LDH (LDH activity, cell death) [5]: 0.43 | Inhibitory effect on rotenone-induced cell death (SH-SY5Y cells): ++

CN1CCc2cccc3c2[C@H]1Cc1ccc(OCCC(c2ccccc2)c2ccccc2)c(O)c1-3 [D54]
dopamine D2 receptor binding activity (in words) (dopamine D2 receptor): no or little | Dopamine D2 receptor binding activity, Activity intensity (dopamine D2 receptor): − | viability at 1 µM [5]: 68% | LDH (LDH activity, cell death) [5]: 0.43 | Inhibitory effect on rotenone-induced cell death (SH-SY5Y cells): −

CCOc1ccc2c(c1O)-c1cccc3c1[C@@H](C2)N(C)CC3 [D55]
pEC50 [1]: 8.40 | ferroptosis inhibitory effect (judged from EC50 value) [1]: particularly high | dopamine D2 receptor binding activity (in words) (dopamine D2 receptor): no or little | Dopamine D2 receptor binding activity, Activity intensity (dopamine D2 receptor): − | viability at 1 µM [5]: 78% | LDH (LDH activity, cell death) [5]: 0.44 | Inhibitory effect on rotenone-induced cell death (SH-SY5Y cells): +
